≈ marks a conversion by molar mass, not a printed value.
Tests used:
C. albicans ATCC 90028 = assay: Anti-Fungal Activity Assay (broth microtiter MIC), C. albicans; format: cell-based, Candida albicans; conditions: 3 replicates, MIC recorded at 48 h; for MIC: Candida albicans, ATCC90028, 48 h, read-out: MIC C. albicans ATCC 90028
Procedure: (§1) Compounds of the present invention were evaluated in an Anti-Fungal Activity Assay. An exemplary procedure for the assay, which measures the susceptibility of various Candida species to anti-fungal compounds, follows. Compounds to be tested (including fluconazole and amphotericin B) were dissolved in DMSO to obtain a solution having a concentration of 1 mg/mL. […] All species were grown from frozen stock by directly plating on to freshly prepared Sabouraud Dextrose agar (BD, Difco) and incubated overnight in ambient air at 35° C. for 24 h. A direct suspension was prepared in RPMI 1640+MOPS (Lonza, Biowhittaker) by taking individual colonies from the overnight cultures using sterile swabs soaked in sterile saline. The concentration of the suspension was determined using pre-determined standard curves. […] Broth microtiter MIC challenge plates were prepared following CLSI guidelines (M27-A3, Vol. 28 No. 14). The original CLSI guidelines focused on reading Candida MICs after 48 h of incubation. As reading after only 24 h offers a clear advantage of patient care, QC limits are being established for all drugs at 24 h. That being said there are no known interpretive breakpoints for amphotericin B at 24 h and the current fluconazole interpretive breakpoints are based on a 48 h reading. The MIC breakpoints for the test compounds were recorded at 48 h, and for the soraphen the 24 h time-point was added. All MIC determinations were achieved by visually comparing the growth found in the antibiotic challenged wells to that of the growth control.

[1] = system: C. parapsilosis ATCC 22019; assay: Anti-Fungal Activity Assay (broth microtiter MIC), C. parapsilosis; format: cell-based, Candida parapsilosis; conditions: Lodderomyces parapsilosis, ATCC22019, 48 h, 3 replicates; MIC recorded at 48 h; read-out: MIC C. parapsilosis ATCC 22019
Procedure: as §1

C. krusei ATCC 6258 = assay: Anti-Fungal Activity Assay (broth microtiter MIC), C. krusei; format: cell-based, Candida krusei; conditions: 3 replicates, MIC recorded at 48 h; for MIC: Pichia kudriavzevii, ATCC6258, 48 h, read-out: MIC C. krusei ATCC 6258
Procedure: as §1

Human ACC2 = Human ACC2 (Homo sapiens, UniProt O00763); assay: In vitro ACC2 inhibition assay (ADP-Glo), human ACC2; format: biochemical; conditions: 5 nM ACC2, 20 μM ATP, 20 μM acetyl-CoA
Chain of Human ACC2 (O00763 whole entry): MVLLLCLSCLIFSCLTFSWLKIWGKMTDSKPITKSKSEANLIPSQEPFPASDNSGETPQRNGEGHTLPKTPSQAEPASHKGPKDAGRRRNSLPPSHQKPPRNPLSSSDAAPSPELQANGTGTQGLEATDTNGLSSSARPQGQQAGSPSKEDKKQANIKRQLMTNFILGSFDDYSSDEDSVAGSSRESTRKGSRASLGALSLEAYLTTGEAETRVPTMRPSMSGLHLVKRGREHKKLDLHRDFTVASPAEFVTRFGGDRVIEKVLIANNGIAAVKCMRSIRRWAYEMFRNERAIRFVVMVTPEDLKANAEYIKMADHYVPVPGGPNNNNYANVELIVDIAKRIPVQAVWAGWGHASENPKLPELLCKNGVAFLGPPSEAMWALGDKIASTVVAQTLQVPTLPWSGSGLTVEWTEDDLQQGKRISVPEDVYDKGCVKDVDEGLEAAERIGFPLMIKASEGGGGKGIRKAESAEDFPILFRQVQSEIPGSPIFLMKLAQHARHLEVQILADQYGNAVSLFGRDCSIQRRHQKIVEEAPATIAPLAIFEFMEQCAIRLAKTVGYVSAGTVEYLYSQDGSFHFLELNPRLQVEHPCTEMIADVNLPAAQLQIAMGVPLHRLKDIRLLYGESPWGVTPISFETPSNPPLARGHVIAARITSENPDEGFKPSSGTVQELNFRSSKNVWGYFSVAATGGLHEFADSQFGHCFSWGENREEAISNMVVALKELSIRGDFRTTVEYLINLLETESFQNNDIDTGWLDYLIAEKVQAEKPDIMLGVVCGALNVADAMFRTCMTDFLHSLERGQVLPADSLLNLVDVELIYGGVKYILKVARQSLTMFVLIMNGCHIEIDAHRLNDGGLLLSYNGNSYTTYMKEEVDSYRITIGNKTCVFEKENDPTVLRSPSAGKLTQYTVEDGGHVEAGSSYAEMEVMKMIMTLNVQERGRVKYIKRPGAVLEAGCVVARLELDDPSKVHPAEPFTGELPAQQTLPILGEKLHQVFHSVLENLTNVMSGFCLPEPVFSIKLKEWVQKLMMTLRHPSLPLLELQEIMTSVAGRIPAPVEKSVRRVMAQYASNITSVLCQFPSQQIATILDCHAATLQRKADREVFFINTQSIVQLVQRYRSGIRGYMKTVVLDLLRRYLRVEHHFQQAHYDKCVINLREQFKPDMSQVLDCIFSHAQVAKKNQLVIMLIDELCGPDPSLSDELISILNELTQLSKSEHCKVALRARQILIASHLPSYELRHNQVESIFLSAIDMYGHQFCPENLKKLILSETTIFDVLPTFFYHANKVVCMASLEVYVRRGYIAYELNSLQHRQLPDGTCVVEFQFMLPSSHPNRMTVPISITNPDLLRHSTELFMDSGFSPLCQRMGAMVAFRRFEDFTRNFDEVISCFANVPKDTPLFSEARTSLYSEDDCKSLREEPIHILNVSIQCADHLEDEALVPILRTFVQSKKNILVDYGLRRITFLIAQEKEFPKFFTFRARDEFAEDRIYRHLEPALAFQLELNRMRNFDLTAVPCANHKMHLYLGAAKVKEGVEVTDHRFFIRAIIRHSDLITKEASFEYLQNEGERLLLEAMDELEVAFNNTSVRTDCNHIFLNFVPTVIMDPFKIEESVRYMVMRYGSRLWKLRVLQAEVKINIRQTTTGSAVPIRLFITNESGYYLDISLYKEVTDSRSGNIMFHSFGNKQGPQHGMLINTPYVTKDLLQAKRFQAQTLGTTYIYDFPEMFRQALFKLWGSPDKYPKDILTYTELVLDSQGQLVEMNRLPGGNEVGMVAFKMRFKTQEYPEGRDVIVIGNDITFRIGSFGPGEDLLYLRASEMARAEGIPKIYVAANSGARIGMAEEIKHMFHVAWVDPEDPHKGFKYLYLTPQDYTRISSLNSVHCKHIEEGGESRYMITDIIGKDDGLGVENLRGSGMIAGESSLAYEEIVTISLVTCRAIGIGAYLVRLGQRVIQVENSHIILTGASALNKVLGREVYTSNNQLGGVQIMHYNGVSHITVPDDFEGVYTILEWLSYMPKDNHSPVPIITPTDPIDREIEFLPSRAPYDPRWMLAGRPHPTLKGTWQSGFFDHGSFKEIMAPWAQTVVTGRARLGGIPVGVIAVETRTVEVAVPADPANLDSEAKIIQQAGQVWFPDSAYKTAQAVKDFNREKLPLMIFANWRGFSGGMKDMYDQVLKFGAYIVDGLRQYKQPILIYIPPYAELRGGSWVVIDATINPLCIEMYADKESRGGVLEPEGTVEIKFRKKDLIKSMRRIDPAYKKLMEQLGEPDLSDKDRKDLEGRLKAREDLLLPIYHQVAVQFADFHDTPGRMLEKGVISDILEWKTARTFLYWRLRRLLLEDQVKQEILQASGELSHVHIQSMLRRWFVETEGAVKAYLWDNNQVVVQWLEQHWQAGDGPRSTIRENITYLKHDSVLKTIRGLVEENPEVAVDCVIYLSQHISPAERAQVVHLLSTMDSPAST

SMILES	MIC C. albicans ATCC 90028 (C. albicans ATCC 90028)	MIC [1]	MIC C. krusei ATCC 6258 (C. krusei ATCC 6258)	IC50 (Human ACC2)	MIC (C. albicans ATCC 90028)	MIC (C. krusei ATCC 6258)
COc1ccc(F)cc1[C@H](Cn1c(=O)n(C2CCN(C(C)C)C2=O)c(=O)c2c(C)c(-n3nccn3)sc21)OC1CCOCC1 (stereo in doubt) [Compound I-138, 1-((R)-2-(5-fluoro-2-methoxyphenyl)-2-((tetrahydro-2H-pyran-4-yl)oxy)ethyl)-3-((S)-1-isopropyl-2-oxopyrrolidin-3-yl)-5-methyl-6-(2H-1,2,3-triazol-2-yl)thieno[2,3-d]pyrimidine-2,4(1H,3H)-dione]	A (provided an MIC of 0.25-1.0 μg/mL)	2.1 to 4 µg/mL (≈ 3.35 to 6.38 µM)	A (provided an MIC of 0.25-1.0 μg/mL)	2 to 10 nM		
CCN1CCC(n2c(=O)c3c(C)c(-n4nccn4)sc3n(C[C@H](OCCOC)c3cc(F)ccc3OC)c2=O)C1=O (stereo partly drawn) [Compound I-3, 3-(1-ethyl-2-oxopyrrolidin-3-yl)-1-((R)-2-(5-fluoro-2-methoxyphenyl)-2-(2-methoxyethoxy)ethyl)-5-methyl-6-(2H-1,2,3-triazol-2-yl)thieno[2,3-d]pyrimidine-2,4(1H,3H)-dione]		2.1 to 4 µg/mL (≈ 3.58 to 6.82 µM)		10 to 100 nM	2.1 to 4 µg/mL (≈ 3.58 to 6.82 µM)	2.1 to 4 µg/mL (≈ 3.58 to 6.82 µM)
COc1ccc(F)cc1[C@H](Cn1c(=O)n(C2CCN(C)C2=O)c(=O)c2c(C)c(-n3nccn3)sc21)OCCO (stereo partly drawn) [Compound I-6, 1-((R)-2-(5-fluoro-2-methoxyphenyl)-2-(2-hydroxy-ethoxy)ethyl)-5-methyl-3-(-methyl-2-oxopyrrolidin-3-yl)-6-(2H-1,2,3-triazol-2-yl)thieno[2,3-d]pyrimidine-2,4(1H,3H)-dione]		2.1 to 4 µg/mL (≈ 3.76 to 7.16 µM)		10 to 100 nM	2.1 to 4 µg/mL (≈ 3.76 to 7.16 µM)	2.1 to 4 µg/mL (≈ 3.76 to 7.16 µM)
CCN1CCC(n2c(=O)c3c(C)c(-n4nccn4)sc3n(C[C@H](OCCO)c3cc(F)ccc3OC)c2=O)C1=O (stereo partly drawn) [Compound I-7, 3-(1-ethyl-2-oxopyrrolidin-3-yl)-1-((R)-2-(5-fluoro-2-methoxyphenyl)-2-(2-hydroxyethoxy)ethyl)-5-methyl-6-(2H-1,2,3-triazol-2-yl)thieno[2,3-d]pyrimidine-2,4(1H,3H)-dione]		2.1 to 4 µg/mL (≈ 3.67 to 6.99 µM)		10 to 100 nM	2.1 to 4 µg/mL (≈ 3.67 to 6.99 µM)	1.1 to 2 µg/mL (≈ 1.92 to 3.49 µM)
COc1ccc(F)cc1[C@H](Cn1c(=O)n(C2CCCNC2=O)c(=O)c2c(C)c(-n3nccn3)sc21)OCCO (stereo partly drawn) [Compound I-17, 1-((R)-2-(5-fluoro-2-methoxyphenyl)-2-(2-hydroxy-ethoxy)ethyl)-5-methyl-3-(2-oxopiperidin-3-yl)-6-(2H-1,2,3-triazol-2-yl)thieno[2,3-d]pyrimidine-2,4(1H,3H)-dione]		2.1 to 4 µg/mL (≈ 3.76 to 7.16 µM)		2 to 10 nM	2.1 to 4 µg/mL (≈ 3.76 to 7.16 µM)	2.1 to 4 µg/mL (≈ 3.76 to 7.16 µM)
CCN1CCCC(n2c(=O)c3c(C)c(-n4nccn4)sc3n(C[C@H](OCCO)c3cc(F)ccc3OC)c2=O)C1=O (stereo partly drawn) [Compound I-19, 3-(1-ethyl-2-oxopiperidin-3-yl)-1-((R)-2-(5-fluoro-2-methoxyphenyl)-2-(2-hydroxyethoxy)ethyl)-5-methyl-6-(2H-1,2,3-triazol-2-yl)thieno[2,3-d]pyrimidine-2,4(1H,3H)-dione]		2.1 to 4 µg/mL (≈ 3.58 to 6.82 µM)		10 to 100 nM	2.1 to 4 µg/mL (≈ 3.58 to 6.82 µM)	2.1 to 4 µg/mL (≈ 3.58 to 6.82 µM)
COc1ccc(F)cc1[C@H](Cn1c(=O)n(C2CCCN(C(C)C)C2=O)c(=O)c2c(C)c(-n3nccn3)sc21)OCCO (stereo partly drawn) [Compound I-20, 1-((R)-2-(5-fluoro-2-methoxyphenyl)-2-(2-hydroxy-ethoxy)ethyl)-3-(1-isopropyl-2-oxopiperidin-3-yl)-5-methyl-6-(2H-1,2,3-triazol-2-yl)thieno[2,3-d]pyrimidine-2,4(1H,3H)-dione]		2.1 to 4 µg/mL (≈ 3.5 to 6.66 µM)		10 to 100 nM	2.1 to 4 µg/mL (≈ 3.5 to 6.66 µM)	2.1 to 4 µg/mL (≈ 3.5 to 6.66 µM)
COc1ccc(F)cc1[C@H](Cn1c(=O)n(C2CCCNC2=O)c(=O)c2c(C)c(-n3nccn3)sc21)OC1CCOCC1 (stereo partly drawn) [Compound I-21, 1-((R)-2-(5-fluoro-2-methoxyphenyl)-2-((tetrahydro-2H-pyran-4-yl)oxy)ethyl)-5-methyl-3-(2-oxopiperidin-3-yl)-6-(2H-1,2,3-triazol-2-yl)thieno[2,3-d]pyrimidine-2,4(1H,3H)-dione]		1.1 to 2 µg/mL (≈ 1.84 to 3.34 µM)		2 to 10 nM	0.25 to 1 µg/mL (≈ 0.418 to 1.67 µM)	0.25 to 1 µg/mL (≈ 0.418 to 1.67 µM)
COc1ccc(F)cc1[C@H](Cn1c(=O)n(C2CCCN(C(C)C)C2=O)c(=O)c2c(C)c(-n3nccn3)sc21)OC1CCOCC1 (some centres unmarked) [Compound I-24]		0.25 to 1 µg/mL (≈ 0.39 to 1.56 µM)		10 to 100 nM	0.25 to 1 µg/mL (≈ 0.39 to 1.56 µM)	0.25 to 1 µg/mL (≈ 0.39 to 1.56 µM)
COc1ccc(F)cc1[C@H](Cn1c(=O)n([C@H]2CCNC2=O)c(=O)c2c(C)c(-n3nccn3)sc21)OC1CCOCC1 [Compound I-33, 1-((R)-2-(5-fluoro-2-methoxyphenyl)-2-((tetrahydro-2H-pyran-4-yl)oxy)ethyl)-5-methyl-3-((S)-2-oxopyrrolidin-3-yl)-6-(2H-1,2,3-triazol-2-yl)thieno[2,3-d]pyrimidine-2,4(1H,3H)-dione]		2.1 to 4 µg/mL (≈ 3.59 to 6.84 µM)		2 to 10 nM	2.1 to 4 µg/mL (≈ 3.59 to 6.84 µM)	1.1 to 2 µg/mL (≈ 1.88 to 3.42 µM)
COc1ccc(F)cc1[C@H](Cn1c(=O)n([C@@H]2CCCNC2=O)c(=O)c2c(C)c(-n3nccn3)sc21)OC1CCOCC1 [Compound I-38, 1-((R)-2-(5-fluoro-2-methoxyphenyl)-2-((tetrahydro-2H-pyran-4-yl)oxy)ethyl)-5-methyl-3-((R)-2-oxopiperidin-3-yl)-6-(2H-1,2,3-triazol-2-yl)thieno[2,3-d]pyrimidine-2,4(1H,3H)-dione]		2.1 to 4 µg/mL (≈ 3.51 to 6.68 µM)		10 to 100 nM	2.1 to 4 µg/mL (≈ 3.51 to 6.68 µM)	2.1 to 4 µg/mL (≈ 3.51 to 6.68 µM)
COc1ccccc1[C@H](Cn1c(=O)n(C2CCCNC2=O)c(=O)c2c(C)c(-c3ncco3)sc21)OC1CCOCC1 (stereo partly drawn) [Compound I-49, 1-((R)-2-(2-methoxyphenyl)-2-((tetrahydro-2H-pyran-4-yl)oxy)ethyl)-5-methyl-6-(oxazol-2-yl)-3-(2-oxopiperidin-3-yl)thieno[2,3-d]pyrimidine-2,4(1H,3H)-dione]		2.1 to 4 µg/mL (≈ 3.62 to 6.89 µM)		10 to 100 nM	1.1 to 2 µg/mL (≈ 1.89 to 3.44 µM)	2.1 to 4 µg/mL (≈ 3.62 to 6.89 µM)
COc1ccccc1[C@H](Cn1c(=O)n(C2CCCN(C)C2=O)c(=O)c2c(C)c(-c3ncco3)sc21)OC1CCOCC1 (stereo partly drawn) [Compound I-50, 1-((R)-2-(2-methoxyphenyl)-2-((tetrahydro-2H-pyran-4-yl)oxy)ethyl)-5-methyl-3-(1-methyl-2-oxopiperidin-3-yl)-6-(oxazol-2-yl)thieno[2,3-d]pyrimidine-2,4(1H,3H)-dione]		2.1 to 4 µg/mL (≈ 3.53 to 6.73 µM)		10 to 100 nM	2.1 to 4 µg/mL (≈ 3.53 to 6.73 µM)	2.1 to 4 µg/mL (≈ 3.53 to 6.73 µM)
COc1ccc(F)cc1[C@H](Cn1c(=O)n(C2CCCNC2=O)c(=O)c2c(C)c(-c3ncco3)sc21)OC1CCOCC1 (stereo partly drawn) [Compound I-51, 1-((R)-2-(5-fluoro-2-methoxyphenyl)-2-((tetrahydro-2H-pyran-4-yl)oxy)ethyl)-5-methyl-6-(oxazol-2-yl)-3-(2-oxopiperidin-3-yl)thieno[2,3-d]pyrimidine-2,4(1H,3H)-dione]		2.1 to 4 µg/mL (≈ 3.51 to 6.68 µM)		10 to 100 nM	1.1 to 2 µg/mL (≈ 1.84 to 3.34 µM)	2.1 to 4 µg/mL (≈ 3.51 to 6.68 µM)
COc1ccc(F)cc1[C@H](Cn1c(=O)n(C2CCCN(C)C2=O)c(=O)c2c(C)c(-c3ncco3)sc21)OC1CCOCC1 (stereo partly drawn) [Compound I-52, 1-((R)-2-(5-fluoro-2-methoxyphenyl)-2-((tetrahydro-2H-pyran-4-yl)oxy)ethyl)-5-methyl-3-(I-methyl-2-oxopiperidin-3-yl)-6-(oxazol-2-yl)thieno[2,3-d]pyrimidine-2,4(1H,3H)-dione]		2.1 to 4 µg/mL (≈ 3.43 to 6.53 µM)		10 to 100 nM	2.1 to 4 µg/mL (≈ 3.43 to 6.53 µM)	1.1 to 2 µg/mL (≈ 1.8 to 3.26 µM)
COc1ccccc1[C@H](Cn1c(=O)n(C2CCNC2=O)c(=O)c2c(C)c(-c3ncco3)sc21)OC1CCOCC1 (stereo partly drawn) [Compound I-56, 1-((R)-2-(2-methoxyphenyl)-2-((tetrahydro-2H-pyran-4-yl)oxy)ethyl)-5-methyl-6-(oxazol-2-yl)-3-(2-oxopyrrolidin-3-yl)thieno[2,3-d]pyrimidine-2,4(1H,3H)-dione]		2.1 to 4 µg/mL (≈ 3.71 to 7.06 µM)		2 to 10 nM	2.1 to 4 µg/mL (≈ 3.71 to 7.06 µM)	2.1 to 4 µg/mL (≈ 3.71 to 7.06 µM)
COc1ccccc1[C@H](Cn1c(=O)n(C2CCN(C)C2=O)c(=O)c2c(C)c(-c3ncco3)sc21)OC1CCOCC1 (stereo partly drawn) [Compound I-57, 1-((R)-2-(2-methoxyphenyl)-2-((tetrahydro-2H-pyran-4-yl)oxy)ethyl)-5-methyl-3-(1-methyl-2-oxopyrrolidin-3-yl)-6-(oxazol-2-yl)thieno[2,3-d]pyrimidine-2,4(1H,3H)-dione]		2.1 to 4 µg/mL (≈ 3.62 to 6.89 µM)		10 to 100 nM	1.1 to 2 µg/mL (≈ 1.89 to 3.44 µM)	1.1 to 2 µg/mL (≈ 1.89 to 3.44 µM)
